# Data reported in patent US20210346391A1, “TREATMENT OF PRURITUS WITH P2X3 MODULATORS” (Bellus Health Cough Inc., priority 2018, published 2021).
# Columns and labels:
# [1] = tested on: chloroquine (CQ) induced itch behavior; test: Chloroquine-induced mouse model of acute itch and its potentiation by α,β-Me-ATP; assay type: in vivo
# [2] = tested on: chronic itch behavior (spontaneous scratches); test: AEW (acetone-ether-water) dry skin model of chronic itch; assay type: in vivo, mouse; conditions: Day 10
# [3] = tested on: chronic itch behavior (spontaneous scratches); test: MC903 atopic dermatitis model of chronic itch; assay type: in vivo, mouse; conditions: Day 8
# Protocol: MC903 (calcipotriol, Tocris) was dissolved in 100% ethanol and topically applied on C57B16/J male mouse ears (4 nmol in 40 μl, 10 μl per side of ear) or nape (4 nmol in 40 μl). This regimen was administered twice daily for 7 days. Scratching behaviors were recorded 16 h after the last MC903 treatment. […] Mice were placed individually into behavior chambers and video recorded at a side angle for 60-90 minutes. A scratch was defined as a lifting of the hind limb towards the nape or head to scratch and then a replacing of the limb back to the floor, regardless of how many scratching strokes take place between lifting and lowering of the hind limb. Experimenters for injections and observers of scratching behavior were blinded to the injection compounds and groups of mice, respectively.
smiles,measurement,setting,value
"CCN(CC)CCCC(C)Nc1ccnc2cc(Cl)ccc12 (stereo not shown) [CQ, chloroquine, reference compound]",number of scratches (mean ± s.e.m.),"[1]; mouse, in vivo",17.2±2.4 scratches
CNC(=O)c1cc(F)c(-c2nc3cc(C)ccn3c2C[C@H]2CN(C(=O)OC)CCO2)c(F)c1 [Compound 1],number of scratches in 15 minutes (mean ± s.e.m.),"[1]; 20 μg CQ + 50 μM α,β-Me-ATP, 10 mg/kg i.p., vehicle 46.6±2.9, p=0.0084",28.3±4.6 scratches
same,decrease of the potentiation of CQ-induced itch by ATP,"[1]; 20 μg CQ + 50 μM α,β-Me-ATP, 10 mg/kg i.p., vs vehicle",40%
same,scratching behavior compared to vehicle,"[1]; 20 μg CQ + 50 μM α,β-Me-ATP, 2, 10, or 50 mg/kg i.p. 30 min before, FIG. 2",decreased scratching behavior
same,number of scratches in 15 minutes (mean ± s.e.m.),"[1]; 20 μg CQ + 100 μM α,β-Me-ATP, 10 mg/kg i.p., vehicle 67±6.3, p=0.0074, FIG. 3",44.8±3.8 scratches
same,decrease of the potentiation of CQ-induced itch by higher concentrations of ATP,"[1]; 20 μg CQ + 100 μM α,β-Me-ATP, 10 mg/kg i.p., vs vehicle",33%
same,decrease of itch induced by high dose CQ,"[1]; 200 μg CQ, 10 mg/kg i.p., vs vehicle",21%
same,number of scratches in 30 minutes (mean ± s.e.m.),"[1]; high dose CQ 200 μg, 10 mg/kg i.p., vehicle 280±16.1, p=0.011, FIG. 4",221.8±12.9 scratches
same,time course of spontaneous scratches in 10-min intervals,"[2]; 2, 10, 50 mg/kg i.p., FIG. 6","significant effect on spontaneous scratches at 20 min, 40 min, 50 min, and 60 min"
same,spontaneous scratches in 60 min compared to vehicle,"[2]; 2, 10, or 50 mg/kg i.p., statistically significant for all doses (p<0.001), FIG. 5",decreased spontaneous scratches
same,time course of spontaneous scratches in 10-min intervals,"[3]; 2, 10, 50 mg/kg i.p., FIG. 8","significant effect on spontaneous scratches at 10 min, 20 min, 30 min, 40 min, 50 min, and 60 min time points"
same,spontaneous scratches in 60 min compared to vehicle,"[3]; 2, 10, or 50 mg/kg i.p., statistically significant for all three doses, FIG. 7",dose-dependently decreased spontaneous scratches
"Nc1ncnc2c1ncn2C1OC(COP(=O)(O)CP(=O)(O)OP(=O)(O)O)C(O)C1O (stereo not drawn) [α,β-Me-ATP, α,β-methylene-adenosine 5′-triphosphate, reference compound]",number of scratches (mean ± s.e.m.),"[1]; co-injected i.d. low dose CQ (20 μg) + 10 μM α,β-Me-ATP, p=0.0013 vs CQ",28.2±2.2 scratches
same,"scratching behavior compared to CQ only or CQ+10 μM α,β-Me-ATP","[1]; co-injected i.d. low dose CQ (20 μg) + 50 μM α,β-Me-ATP, p<0.001 vs CQ, FIG. 1",further increased scratching behaviors
same,number of scratches (mean ± s.e.m.),"[1]; mice injected i.d. solely with 10 μM α,β-Me-ATP",2.4±0.9 scratches
same,number of scratches (mean ± s.e.m.),"[1]; mice injected i.d. solely with 50 μM α,β-Me-ATP",5.6±1.8 scratches
